Measured values published in patent US12129246B1, “Hydroquinazoline derivatives for the treatment of a disease or disorder” (Novartis AG, priority 2023, dated 2024).
Where two headings read alike, the source gives them in different places.

What was measured:
[1] = biological target: monkey NPR1 (Macaca fascicularis, UniProt A0A7N9DBT9); test: Cellular cGMP production assay, monkey NPR1 expressing CHO-K1 cells (CisBio HTRF); format: cell-based; details: for Monkey NPR1 Amax (% of ANP): maximum cGMP production as percentage of the maximum cGMP produced with ANP
Sequence of monkey NPR1 (A0A7N9DBT9 entry or part of it): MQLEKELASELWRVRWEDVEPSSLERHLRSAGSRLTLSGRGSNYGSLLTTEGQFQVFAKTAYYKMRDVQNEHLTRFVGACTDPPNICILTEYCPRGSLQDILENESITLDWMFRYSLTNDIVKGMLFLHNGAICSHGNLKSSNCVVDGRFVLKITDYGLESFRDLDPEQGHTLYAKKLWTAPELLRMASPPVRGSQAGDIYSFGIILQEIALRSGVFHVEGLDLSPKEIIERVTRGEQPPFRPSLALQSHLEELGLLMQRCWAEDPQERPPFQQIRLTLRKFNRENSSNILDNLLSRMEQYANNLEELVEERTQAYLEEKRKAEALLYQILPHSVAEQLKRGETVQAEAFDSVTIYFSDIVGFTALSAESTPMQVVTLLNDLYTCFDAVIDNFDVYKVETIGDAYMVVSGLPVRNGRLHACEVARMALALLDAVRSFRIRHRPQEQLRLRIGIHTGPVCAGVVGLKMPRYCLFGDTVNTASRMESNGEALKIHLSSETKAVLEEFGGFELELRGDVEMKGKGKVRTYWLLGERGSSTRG
Method in brief: (§1)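 12-pt 3-fold dose-response, top 30 μM; buffer PBS + 0.1% BSA + 1 mM IBMX (PDE inhibitor); 30 min, 37 °C. Lyse, add cGMP-d2 + anti-cGMP-cryptate, 1 h RT. Ex 317 / em 665 nm; Delta F converted to cGMP via calibrator standard curve.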

[2] = biological target: T1, human NPR1 (Homo sapiens, UniProt P16066); test: Cellular cGMP production assay, human NPR1 expressing CHO-K1 cells (CisBio HTRF); format: cell-based; details: for AC50: cGMP production, 30 min at 37° C., 12-point dose-response from 30 μM; for Human NPR1 Amax (% of ANP): maximum cGMP production as percentage of the maximum cGMP produced with ANP
T1 construct: host or cells: CHO-K1
T1 sequence (P16066 33-1061): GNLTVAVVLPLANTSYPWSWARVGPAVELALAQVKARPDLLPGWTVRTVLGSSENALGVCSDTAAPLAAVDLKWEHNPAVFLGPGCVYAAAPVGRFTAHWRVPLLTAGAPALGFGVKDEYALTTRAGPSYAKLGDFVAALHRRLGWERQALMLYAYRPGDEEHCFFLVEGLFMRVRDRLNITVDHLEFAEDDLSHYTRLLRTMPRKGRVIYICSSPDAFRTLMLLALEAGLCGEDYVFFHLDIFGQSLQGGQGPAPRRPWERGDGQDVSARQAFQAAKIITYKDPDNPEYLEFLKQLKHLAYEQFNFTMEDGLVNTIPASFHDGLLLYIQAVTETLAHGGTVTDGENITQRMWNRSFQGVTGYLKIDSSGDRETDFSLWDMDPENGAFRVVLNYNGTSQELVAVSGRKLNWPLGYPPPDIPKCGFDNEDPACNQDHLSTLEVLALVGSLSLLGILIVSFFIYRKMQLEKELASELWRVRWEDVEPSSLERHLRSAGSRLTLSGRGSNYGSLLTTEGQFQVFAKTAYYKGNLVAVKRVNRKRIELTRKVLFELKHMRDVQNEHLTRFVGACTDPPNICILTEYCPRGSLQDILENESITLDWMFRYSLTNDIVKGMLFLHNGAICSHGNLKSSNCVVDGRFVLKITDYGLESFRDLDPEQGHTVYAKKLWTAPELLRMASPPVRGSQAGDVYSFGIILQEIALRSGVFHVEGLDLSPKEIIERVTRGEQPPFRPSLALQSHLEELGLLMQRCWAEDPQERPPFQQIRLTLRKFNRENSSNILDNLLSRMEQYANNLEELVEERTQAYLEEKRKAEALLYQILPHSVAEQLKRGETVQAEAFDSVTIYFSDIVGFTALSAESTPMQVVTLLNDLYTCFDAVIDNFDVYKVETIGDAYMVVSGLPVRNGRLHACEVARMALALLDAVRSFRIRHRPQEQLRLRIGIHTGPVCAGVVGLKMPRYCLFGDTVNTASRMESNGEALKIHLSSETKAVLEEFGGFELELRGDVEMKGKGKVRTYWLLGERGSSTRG
Method in brief: as §1

[3] = cGMP production, monkey NPR1 CHO-K1 cells, 30 min at 37° C., 12-point dose-response from 30 μM, read-out: Monkey NPR1 AC50

`CC[C@@H](N(C)c1nc2c(c(N[C@@H](CN3C4CCCC3CCC4)c3cnn(C)c3)n1)C[C@H](c1ccc(F)cc1)CC2)C12CC(C(=O)O)(C1)C2` [Compound 11, 3-((R)-1-(((R)-4-(((R)-2-((1S,5S)-9-azabicyclo[3.3.1]nonan-9-yl)-1-(1-methyl-1H-pyrazol-4-yl)ethyl)amino)-6-(4-fluorophenyl)-5,6,7,8-tetrahydroquinazolin-2-yl)(methyl)amino)propyl)bicyclo[1.1.1]pentane-1-carboxylic acid] was tested, and the AC50 [1] was 70 nM, the “Monkey NPR1 Amax (% of ANP)” value ([1]; monkey NPR1 CHO-K1 cells) was 113.853 % of ANP and the AC50 [2] was 94 nM. For the same compound, the “Human NPR1 Amax (% of ANP)” value [2] was 103.738 % of ANP.
For `CC[C@H]([C@H]1CC[C@H](C(=O)O)CC1)N(C)c1nc2c(c(N[C@@H](CN3CCC[C@H](C(F)F)C3)c3cnn(C)c3)n1)C[C@H](c1cccc(F)c1)CC2` [Compound 54, (1R,4r)-4-((R)-1-(((R)-4-(((R)-2-((S)-3-(difluoromethyl)piperidin-1-yl)-1-(1-methyl-1H-pyrazol-4-yl)ethyl)amino)-6-(3-fluorophenyl)-5,6,7,8-tetrahydroquinazolin-2-yl)(methyl)amino)propyl)cyclohexane-1-carboxylic acid], the AC50 [1, 3] was 174 nM, the “Monkey NPR1 Amax (% of ANP)” value ([1]; monkey NPR1 CHO-K1 cells) was 103.704 % of ANP and the AC50 [2] was 194 nM. The “Human NPR1 Amax (% of ANP)” value [2] was 95.979 % of ANP.
In the case of `C[C@H]1CCCN(C[C@H](Nc2nc(N(C)[C@H](C3CC3)[C@H]3CC[C@H](C(=O)O)CC3)nc3c2C[C@H](c2cccc(F)c2)CC3)c2cnn(C)c2)C1` [Compound 47, (1R,4r)-4-((R)-cyclopropyl(((R)-6-(3-fluorophenyl)-4-(((R)-1-(1-methyl-1H-pyrazol-4-yl)-2-((S)-3-methylpiperidin-1-yl)ethyl)amino)-5,6,7,8-tetrahydroquinazolin-2-yl)(methyl)amino)methyl)cyclohexane-1-carboxylic acid], the AC50 [1, 3] is reported as 97 nM, the “Monkey NPR1 Amax (% of ANP)” value ([1]; monkey NPR1 CHO-K1 cells) is reported as 96.550 % of ANP and the AC50 [2] is reported as 180 nM. For the same compound, the “Human NPR1 Amax (% of ANP)” value [2] was 101.280 % of ANP.
In the case of `CC[C@@H](N(C)c1nc2c(c(N[C@H](CN3CCCCCC3)c3cnn(C)c3)n1)C[C@H](c1cccc(F)c1)CC2)C12CC(C(=O)O)(C1)C2` [Compound 4, 3-((R)-1-(((R)-4-(((S)-2-(azepan-1-yl)-1-(1-methyl-1H-pyrazol-4-yl)ethyl)amino)-6-(3-fluorophenyl)-5,6,7,8-tetrahydroquinazolin-2-yl)(methyl)amino)propyl)bicyclo[1.1.1]pentane-1-carboxylic acid], the AC50 [1, 3] is reported as 70 nM, the “Monkey NPR1 Amax (% of ANP)” value ([1]; monkey NPR1 CHO-K1 cells) is reported as 101.838 % of ANP and the AC50 [2] is reported as 72 nM. For the same compound, the “Human NPR1 Amax (% of ANP)” value [2] was 99.041 % of ANP.
`CC[C@@H](N(C)c1nc2c(c(N[C@@H](CN3C4CCCC3CC4)c3cnn(C)c3)n1)C[C@](C)(c1ccccc1)CC2)C12CC(C(=O)O)(C1)C2` [Compound 28, 3-((1R)-1-(((6R)-4-(((1R)-2-(8-azabicyclo[3.2.1]octan-8-yl)-1-(1-methyl-1H-pyrazol-4-yl)ethyl)amino)-6-methyl-6-phenyl-5,6,7,8-tetrahydroquinazolin-2-yl)(methyl)amino)propyl)bicyclo[1.1.1]pentane-1-carboxylic acid] was tested, and the AC50 [1] was 134 nM, the “Monkey NPR1 Amax (% of ANP)” value ([1]; monkey NPR1 CHO-K1 cells) was 105.314 % of ANP and the AC50 [2] was 139 nM. The “Human NPR1 Amax (% of ANP)” value [2] was 103.247 % of ANP.
For `CC[C@H]([C@H]1CC[C@H](C(=O)O)CC1)N(C)c1nc2c(c(N[C@@H](CN3CCC[C@H](COC)C3)c3cnn(C)c3)n1)C[C@H](c1ccccc1)CC2` [Compound 83, (1R,4r)-4-((R)-1-(((R)-4-(((R)-2-((S)-3-(methoxymethyl)piperidin-1-yl)-1-(1-methyl-1H-pyrazol-4-yl)ethyl)amino)-6-phenyl-5,6,7,8-tetrahydroquinazolin-2-yl)(methyl)amino)propyl)cyclohexane-1-carboxylic acid], the AC50 [1, 3] was 173 nM, the “Monkey NPR1 Amax (% of ANP)” value ([1]; monkey NPR1 CHO-K1 cells) was 98.205 % of ANP and the AC50 [2] was 282 nM. For the same compound, the “Human NPR1 Amax (% of ANP)” value [2] was 98.117 % of ANP.
With `CC[C@H]([C@H]1CC[C@H](C(=O)O)CC1)N(C)c1nc2c(c(N[C@@H](CN3CCC[C@H](C)C3)c3cnn(C)c3)n1)CN(c1ccccc1F)CC2` [Compound 106, (1R,4r)-4-((R)-1-((6-(2-fluorophenyl)-4-(((R)-1-(1-methyl-1H-pyrazol-4-yl)-2-((S)-3-methylpiperidin-1-yl)ethyl)amino)-5,6,7,8-tetrahydropyrido[4,3-d]pyrimidin-2-yl)(methyl)amino)propyl)cyclohexane-1-carboxylic acid] the AC50 [1, 3] was 254 nM, the “Monkey NPR1 Amax (% of ANP)” value ([1]; monkey NPR1 CHO-K1 cells) was 104.076 % of ANP and the AC50 [2] was 399 nM. For the same compound, the “Human NPR1 Amax (% of ANP)” value [2] was 100.198 % of ANP.
`CC[C@H]([C@H]1CC[C@H](C(=O)O)CC1)N(C)c1nc2c(c(N[C@@H](CN3C4CCCC3COC4)c3cnn(C)c3)n1)C[C@H](c1ccccc1)CC2` [Compound 169, (1R,4r)-4-((R)-1-(((R)-4-(((R)-2-((1R,5S)-3-oxa-9-azabicyclo[3.3.1]nonan-9-yl)-1-(1-methyl-1H-pyrazol-4-yl)ethyl)amino)-6-phenyl-5,6,7,8-tetrahydroquinazolin-2-yl)(methyl)amino)propyl)cyclohexane-1-carboxylic acid] was tested, and the AC50 [1] was 1920 nM, the “Monkey NPR1 Amax (% of ANP)” value ([1]; monkey NPR1 CHO-K1 cells) was 96.574 % of ANP and the AC50 [2] was 2670 nM. The “Human NPR1 Amax (% of ANP)” value [2] was 67.375 % of ANP.
In the case of `CC[C@H]([C@H]1CC[C@H](C(=O)O)CC1)N(C)c1nc2c(c(N[C@@H](CN3CCCCC3)c3cnn(CC(F)(F)F)c3)n1)C[C@H](c1ccccc1)CC2` [Compound 167, (1R,4r)-4-((R)-1-(methyl((R)-6-phenyl-4-(((R)-2-(piperidin-1-yl)-1-(1-(2,2,2-trifluoroethyl)-1H-pyrazol-4-yl)ethyl)amino)-5,6,7,8-tetrahydroquinazolin-2-yl)amino)propyl)cyclohexane-1-carboxylic acid], the AC50 [1, 3] is reported as 1430 nM, the “Monkey NPR1 Amax (% of ANP)” value ([1]; monkey NPR1 CHO-K1 cells) is reported as 98.847 % of ANP and the AC50 [2] is reported as 2090 nM. The “Human NPR1 Amax (% of ANP)” value [2] was 112.087 % of ANP.
With `CC[C@@H](Nc1nc2c(c(N[C@@H](CN3CCCCC3)c3cnn(C(C)C)c3)n1)C[C@H](c1ccccc1)CC2)[C@H]1CC[C@H](C(=O)O)CC1` [Compound 100, (1R,4r)-4-((R)-1-(((R)-4-(((R)-1-(1-isopropyl-1H-pyrazol-4-yl)-2-(piperidin-1-yl)ethyl)amino)-6-phenyl-5,6,7,8-tetrahydroquinazolin-2-yl)amino)propyl)cyclohexane-1-carboxylic acid] the AC50 [1, 3] was 161 nM, the “Monkey NPR1 Amax (% of ANP)” value ([1]; monkey NPR1 CHO-K1 cells) was 105.588 % of ANP and the AC50 [2] was 354 nM. For the same compound, the “Human NPR1 Amax (% of ANP)” value [2] was 92.848 % of ANP.
With `CC[C@@H](Nc1nc2c(c(N[C@@H](CN3CCCC3)c3ccccc3)n1)CN(c1cccc(F)c1)CC2)[C@H]1CC[C@H](C(=O)O)CC1` [Compound 99, (1R,4r)-4-((R)-1-((6-(3-fluorophenyl)-4-(((R)-1-phenyl-2-(pyrrolidin-1-yl)ethyl)amino)-5,6,7,8-tetrahydropyrido[4,3-d]pyrimidin-2-yl)amino)propyl)cyclohexane-1-carboxylic acid] the AC50 [1, 3] was 256 nM, the “Monkey NPR1 Amax (% of ANP)” value ([1]; monkey NPR1 CHO-K1 cells) was 94.886 % of ANP and the AC50 [2] was 351 nM. The “Human NPR1 Amax (% of ANP)” value [2] was 102.315 % of ANP.
